Results on 17 compounds are retold here after US20160193206A1, “BET-PROTEIN-INHIBITING DIHYDROPYRIDOPYRAZINONES” (BAYER PHARMA AKTIENGESELLSCHAFT, priority 2012, published 2016).

The test system of one assay is MOLM-13 cell line. The assay can be described thus: MOLM-13 cell proliferation assay (alamarBlue). The assay is classed as cell-based. The settings on record: Homo sapiens, inhibition of proliferation of MOLM-13 cells (acute myeloid leukaemia), 96 hours incubation. The method, then: In accordance with the invention, the substances were tested for their ability to inhibit the proliferation of the MOLM-13 cell linie (Deutsche Sammlung für Mikroorganismen und Zellkulturen [German Collection of Microorganisms and Cell Cultures], ACC 554; acute myeloid leukaemia). Cell viability was determined by means of the alamarBlue® reagent (Invitrogen) in a Victor X3 Multilabel Reader (Perkin Elmer). The excitation wavelength was 530 nm and the emission wavelength […].
The MOLM-13 cells were sown at a density of 4000 cells/well in 100 μl of growth medium on 96-well microtitre plates. After overnight incubation at 37° C., the fluorescence values were determined (CI values). The plates were then treated with various substance dilutions and incubated at 37° C. for 96 hours. Subsequently, the fluorescence values were determined (CO values). For the data analysis, the CI values were subtracted from the CO values and the results were compared between cells which had been treated with various dilutions of the substance or only with buffer solution. The IC50 values (substance concentration needed for 50% inhibition of cell proliferation) were calculated therefrom.

Assay [1] deals with T1, BRD4 bromo domain 1 [BRD4(1)] (Homo sapiens, UniProt O60885).
T1 construct: N-terminally His6-tagged BRD4(1) (amino acids 67-152); made in house; host or cells: E. coli
Description: BRD4(1)/acetylated peptide H4 binding assay (TR-FRET). The conditions noted are these: inhibition of interaction between His6-tagged BRD4(1) (amino acids 67-152) and acetylated histone H4 peptide. In outline:
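TR-FRET measured displacement of a biotinylated tetra-acetylated H4 peptide from His6-BRD4(1) (aa 67-152, E. coli-expressed, typically 10 nM) in HEPES pH 7.5 buffer. Compounds were tested at 11 concentrations (0.1 nM–20 μM), with 10 min preincubation, then 1 h at 22 °C and ≥3 h at 4 °C. The 665/620 nm ratio gave IC50 by 4-parameter fit.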
(In general: Time-resolved FRET reads energy transfer from a long-lived donor to a nearby acceptor.)

Assay [2] deals with T2, BRD4 bromo domain 2 [BRD4(2)] (Homo sapiens, UniProt O60885).
T2 construct: N-terminally His6-tagged BRD4(2) (amino acids 357-445); made in house; host or cells: E. coli
Description: BRD4(2)/acetylated peptide H4 binding assay (TR-FRET). The conditions noted are these: inhibition of interaction between His6-tagged BRD4(2) (amino acids 357-445) and acetylated histone H4 peptide. Put shortly: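 TR-FRET displacement of biotinylated tetra-acetylated H4 peptide from His6-BRD4(2) (aa 357-445, E. coli-expressed), 100 nM final, in HEPES pH 7.5 buffer; 11 compound concentrations 0.1 nM-20 μM, 10 min preincubation, then 1 h 22 °C plus ≥3 h 4 °C. 665/620 ratio read; IC50 by 4-parameter fit.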

The structures appear in SMILES notation.

Consider `COc1cc(C(=O)NC2CCN(C)CC2)ccc1Nc1ccc2c(n1)N(C(C)C)[C@H](C)C(=O)N2C` [Example 2, 4-{[(3R)-1,3-Dimethyl-2-oxo-4-(propan-2-yl)-1,2,3,4-tetrahydropyrido[2,3-b]pyrazin-6-yl]amino}-3-methoxy-N-(1-methylpiperidin-4-yl)benzamide], for which the values for the concentration for half-maximal inhibition (IC50) (in the assay with MOLM-13 cell line; in assay [1]; in assay [2]) were 2.36 µM, 0.501 µM and 0.622 µM, respectively.
Consider `COc1cc(C(=O)NCCN2CCOCC2)ccc1Nc1ccc2c(n1)N(C(C)C)[C@H](C)C(=O)N2C` [Example 3, 4-{[(3R)-1,3-Dimethyl-2-oxo-4-(propan-2-yl)-1,2,3,4-tetrahydropyrido[2,3-b]pyrazin-6-yl]amino}-3-methoxy-N-[2-(morpholin-4-yl)ethyl]benzamide], for which the IC50 in the assay on MOLM-13 cell line came to 0.63 µM; in assay [1] it was 0.131 µM; in assay [2] it was 0.472 µM.
The like results for `COc1cc(C(=O)NCCN2CCN(C(=O)OC(C)(C)C)CC2)ccc1Nc1ccc2c(n1)N(C(C)C)[C@H](C)C(=O)N2C` [Example 4, 1-tert-Butyl 4-{2-[(4-{[(3R)-1,3-dimethyl-2-oxo-4-(propan-2-yl)-1,2,3,4-tetrahydropyrido[2,3-b]pyrazin-6-yl]amino}-3-methoxybenzoyl)amino]ethyl}piperazinecarboxylate] were, in that order, 1.11 µM, 0.374 µM and 0.234 µM.
With `COc1cc(C(=O)N2CC3(CCS3(=O)=O)C2)ccc1Nc1ccc2c(n1)N(C(C)C)[C@H](C)C(=O)N2C` [Example 8, (3R)-6-({4-[(1,1-Dioxido-1-thia-6-azaspiro[3.3]hept-6-yl)carbonyl]-2-methoxyphenyl}amino)-4-isopropyl-1,3-dimethyl-3,4-dihydropyrido[2,3-b]pyrazin-2(1H)-one], the figures for the IC50 (in the assay with MOLM-13 cell line; in assay [1]; in assay [2]) were 0.362 µM, 0.141 µM and 0.083 µM, respectively.
As to `CC(C)N1c2nc(Nc3ccc(C(=O)N4CC5(CCS5(=O)=O)C4)cc3)ccc2N(C)C(=O)[C@H]1C` [Example 9, (3R)-6-({4-[(1,1-Dioxido-1-thia-6-azaspiro[3.3]hept-6-yl)carbonyl]phenyl}amino)-4-isopropyl-1,3-dimethyl-3,4-dihydropyrido[2,3-b]pyrazin-2(1H)-one], the values for the 50% inhibitory concentration (IC50) (in the assay on MOLM-13 cell line; in assay [1]; in assay [2]) were 0.698 µM, 0.15 µM and 0.13 µM, respectively.
For `COc1cc(C(=O)N2CC3(CCS3(=O)=O)C2)ccc1Nc1ccc2c(n1)N(C1CCCC1)[C@H](C)C(=O)N2C` [Example 10, (3R)-4-Cyclopentyl-6-({4-[(1,1-dioxido-1-thia-6-azaspiro[3.3]hept-6-yl)carbonyl]-2-methoxyphenyl}amino)-1,3-dimethyl-3,4-dihydropyrido[2,3-b]pyrazin-2(1H)-one], the IC50 is 0.623 µM with MOLM-13 cell line, 0.165 µM in assay [1] and 0.23 µM in assay [2].
Taken in the same sequence, the figures for `C[C@@H]1C(=O)N(C)c2ccc(Nc3ccc(C(=O)NC4CCN(C)CC4)cc3)nc2N1C1CCCC1` [Example 11, 4-{[(3R)-4-Cyclopentyl-1,3-dimethyl-2-oxo-1,2,3,4-tetrahydropyrido[2,3-b]pyrazin-6-yl]amino}-N-(1-methylpiperidin-4-yl)benzamide] were 0.444 µM, 0.063 µM and 0.083 µM.
Taken in the same sequence, the figures for `COc1cc(C(=O)NC2CCN(C)CC2)ccc1Nc1ccc2c(n1)N(C1CCOCC1)[C@H](C)C(=O)N2C` [Example 13, 4-{[(3R)-1,3-Dimethyl-2-oxo-4-(tetrahydro-2H-pyran-4-yl)-1,2,3,4-tetrahydropyrido[2,3-b]pyrazin-6-yl]amino}-3-methoxy-N-(1-methylpiperidin-4-yl)benzamide] were 0.212 µM, 0.114 µM and 0.113 µM.
For the compound `COc1cc(C(=O)N[C@H]2CC[C@H](N3CCN(CC4CC4)CC3)CC2)ccc1Nc1ccc2c(n1)N(C1CCOCC1)[C@H](C)C(=O)N2C` [Example 14, N-{trans-4-[4-(Cyclopropylmethyl)piperazin-1-yl]cyclohexyl}-4-{[(3R)-1,3-dimethyl-2-oxo-4-(tetrahydro-2H-pyran-4-yl)-1,2,3,4-tetrahydropyrido[2,3-b]pyrazin-6-yl]amino}-3-methoxybenzamide], the IC50 with MOLM-13 cell line worked out at 0.233 µM; in assay [1], 0.149 µM; in assay [2], 0.108 µM.
Taken in the same sequence, the figures for `C[C@@H]1C(=O)N(C)c2ccc(Nc3ccc(S(=O)(=O)N[C@H]4CC[C@H](N5CCN(CC6CC6)CC5)CC4)cc3)nc2N1C1CCOCC1` [Example 15, N-{trans-4-[4-(Cyclopropylmethyl)piperazin-1-yl]cyclohexyl}-4-{[(3R)-1,3-dimethyl-2-oxo-4-(tetrahydro-2H-pyran-4-yl)-1,2,3,4-tetrahydropyrido[2,3-b]pyrazin-6-yl]amino}benzenesulphonamide] were 0.062 µM, 0.237 µM and 0.051 µM.
With `C[C@@H]1C(=O)N(C)c2ccc(Nc3ccc(S(=O)(=O)N4CCOCC4)cc3)nc2N1C1CCOCC1` [Example 18, (3R)-1,3-dimethyl-6-{[4-(morpholin-4-ylsulphonyl)phenyl]amino}-4-(tetrahydro-2H-pyran-4-yl)-3,4-dihydropyrido[2,3-b]pyrazin-2(1H)-one], the concentration for half-maximal inhibition (IC50) in the assay with MOLM-13 cell line was 0.305 µM; in assay [1], 0.056 µM; in assay [2] it was 0.04 µM.
Regarding `C[C@@H]1C(=O)N(C)c2ccc(Nc3ccc(S(=O)(=O)N4CCN(C)CC4)cc3)nc2N1C1CCOCC1` [Example 20, (3R)-1,3-dimethyl-6-({4-[(4-methylpiperazin-1-yl)sulphonyl]phenyl}amino)-4-(tetrahydro-2H-pyran-4-yl)-3,4-dihydropyrido[2,3-b]pyrazin-2(1H)-one], the figures for the IC50 (in the assay with MOLM-13 cell line; in assay [1]; in assay [2]) were 0.445 µM, 0.154 µM and 0.096 µM, respectively.
With `C[C@@H]1C(=O)N(C)c2ccc(Nc3ccc(S(=O)(=O)N4CCN(C)CC4)cc3F)nc2N1C1CCOCC1` [Example 21, (3R)-6-({2-fluoro-4-[(4-methylpiperazin-1-yl)sulphonyl]phenyl}amino)-1,3-dimethyl-4-(tetrahydro-2H-pyran-4-yl)-3,4-dihydropyrido[2,3-b]pyrazin-2(1H)-one], the IC50 in the assay on MOLM-13 cell line was found to be 0.397 µM; in assay [1], 0.106 µM; in assay [2], 0.087 µM.
As for `C[C@@H]1C(=O)N(C)c2ccc(Nc3ccc(S(=O)(=O)NC4CCN(C)CC4)cc3)nc2N1C1CCOCC1` [Example 22, 4-{[(3R)-1,3-dimethyl-2-oxo-4-(tetrahydro-2H-pyran-4-yl)-1,2,3,4-tetrahydropyrido[2,3-b]pyrazin-6-yl]amino}-N-(1-methylpiperidin-4-yl)benzenesulphonamide], the results for the IC50 (with MOLM-13 cell line; in assay [1]; in assay [2]) were 0.203 µM, 0.052 µM and 0.053 µM, respectively.
As to `C[C@@H]1C(=O)N(C)c2ccc(Nc3ccc(S(=O)(=O)NCCN4CCN(C)CC4)cc3)nc2N1C1CCOCC1` [Example 23, 4-{[(3R)-1,3-dimethyl-2-oxo-4-(tetrahydro-2H-pyran-4-yl)-1,2,3,4-tetrahydropyrido[2,3-b]pyrazin-6-yl]amino}-N-[2-(4-methylpiperazin-1-yl)ethyl]benzene-sulponamide], the half-maximal inhibitory concentration (IC50) in the assay with MOLM-13 cell line is 0.358 µM; in assay [1] it was 0.046 µM; in assay [2], 0.065 µM.
Taken in the same sequence, the figures for `C[C@@H]1C(=O)N(C)c2ccc(Nc3ccc(S(=O)(=O)NCCN(C)C)cc3)nc2N1C1CCOCC1` [Example 24, N-[2-(dimethylamino)ethyl]-4-{[(3R)-1,3-dimethyl-2-oxo-4-(tetrahydro-2H-pyran-4-yl)-1,2,3,4-tetrahydropyrido[2,3-b]pyrazin-6-yl]amino}benzene-sulphonamide] were 0.554 µM, 0.081 µM and 0.076 µM.
On to `C[C@@H]1C(=O)N(C)c2ccc(Nc3ccc(S(=O)(=O)NCc4ccccn4)cc3)nc2N1C1CCOCC1` [Example 25, 4-{[(3R)-1,3-dimethyl-2-oxo-4-(tetrahydro-2H-pyran-4-yl)-1,2,3,4-tetrahydropyrido[2,3-b]pyrazin-6-yl]amino}-N-(pyridin-2-ylmethyl)benzene-sulphonamide], for which the IC50 turned out to be 0.388 µM in the assay on MOLM-13 cell line, 0.05 µM in assay [1] and 0.094 µM in assay [2].

What is called IC50 is the concentration at which inhibition is half-maximal. A lower IC50 goes with higher potency.
